Measurements as given in patent US20240261302A1, “METHODS OF TREATING NEURODEGENERATIVE DISEASES OR CONDITIONS” (FloraScience Inc., priority 2023, published 2024).

Tests used:
Assay type in all cases: cell-based, mouse
HT22 cells [1] = assay: Cytotoxicity assessment of CBN in HT22 cells
Method: FIGS. 2A-2I show CBN inhibits oxytosis/ferroptosis in HT22 cells. Representative micrographs of HT22 cells following treatment for 16 h: (FIG. 2A) 0.2% ethanol treatment as vehicle control, (FIG. 2B) 5 μM CBN treatment, (FIG. 2C) 5 mM glutamate treatment, (FIG. 2D) 50 nM RSL3 treatment, (FIG. 2E) 5 μM CBN pretreatment for 1 h followed by 5 mM glutamate treatment, (FIG. 2F) 5 μM CBN pretreatment for 1 h followed by 50 nM RSL3 treatment. Micrographs show the representative morphological characteristics of the cell cultures under a given condition of 16 experimental replicates. Scale bar=100 μm. (FIG. 2G) Cells were pretreated with varying concentrations of CBN for 1 h followed by 5 mM glutamate treatment and incubation for 16 h. (FIG. 2H) Cells were pretreated with varying concentrations of CBN for 1 h followed by 50 nM RSL3 treatment and incubation for 16 h. The results are presented as the percentage of the neuroprotective activity relative to control (100%) and Glu/RSL3 (0%). The neuroprotection curves were analyzed by four-parameter regression. (FIG. 2I) Cytotoxicity assessment of CBN in HT22 cells. Cells were treated with increasing concentrations of CBN or 0.2% ethanol vehicle and incubated for 16 h. Data are the mean of 8-16 replicates per condition±SD.

HT22 cells [2] = assay: Mitochondrial Membrane Potential Assay (JC-10) in HT22 cells; conditions: 5 μM, 4 hr, p<0.0001
Method: Mitochondrial Membrane Potential Assay. Cells seeded at 5,000 cells/well onto 96-well black walled plates were treated with test compounds at the desired concentrations under the culture condition described above. The mitochondrial uncoupler FCCP at 2 μM was used as a reference control. After the desired treatments for 4 hr, the cells were subjected to a JC-10 mitochondrial membrane potential assay according to the manufacturer's instruction. Fluorescence intensities (Ex/Em=490/525 nm, and Ex/Em=540/590 nm) of each well were monitored on a SpectraMax M5 microplate reader. The ratio of fluorescence intensity (590/525 nm) was used to determine the mitochondrial membrane potential (ΔΨm). Decreasing ratios indicate mitochondrial membrane depolarization. Samples were analyzed in eight to sixteen wells per independent experiment (n=8-16). Results were verified by live-cell imaging under a fluorescence microscope.

HT22 cells [3] = assay: Relative mtDNA copy number (qPCR)
Method: Quantitative Reverse Transcription PCR (qPCR) Analysis. HT22 cells were seeded onto 60 mm dishes at a density of 140,000 cells/dish in DMEM supplemented with 10% FBS and 1% antibiotics. After the desired treatments, total RNA was extracted using the RNeasy Mini Kit (Qiagen, Cat #74104, Hilden, Germany). cDNA was synthesized using SuperScript III First-Strand Synthesis System for qPCR (Invitrogen, Cat #18080051, Carlsbad, CA). Amplification was performed with TaqMan Fast Advanced Master Mix (ThermoFisher Scientific, Cat #4444556, Carlsbad, CA) using a QuantStudio 3 Real-Time PCR Systems (ThermoFisher Scientific, CA). The primer pairs were used as follows: CNR1 (Forward, 5′-[…]-3′; Reverse, 5′-[…]-3′); CNR2 (Forward, 5′-[…]-3′; Reverse, 5′-GCCGGGAGGACAGGATAAT-3′). The expression of the GAPDH gene was measured for normalization. The mouse Mitochondrial DNA Copy Number Kit was used (Detroit R&D, Cat #MCN3, Detroit, MI) according to the manufacturer's instructions. Relative fold change was calculated using the 2^(−ΔΔCt) method. Samples were analyzed in three dishes per independent experiment (n=3).

Compound: CCCCCc1cc(O)c2c(c1)OC(C)(C)c1ccc(C)cc1-2 [CBN, 6,6,9-Trimethyl-3-pentyl-benzo[c]chromen-1-ol]
- cellular morphology, compound alone (HT22 cells [1]; 5 μM, 16 hr, microscopic imaging): did not induce visual changes in cellular morphology
- concentrations at which cytotoxicity was noted (HT22 cells [1]; HT22 cells, 16 h): ≥ 500 µM
- dose up to which no apparent cytotoxicity was observed (HT22 cells [1]; HT22 cells, 16 h): ≤ 200 µM
- decrease of mitochondrial membrane potential (ΔΨm) (HT22 cells [2]): approximately 17%
- mtDNA copy number with RSL3 (HT22 cells [3]; 50 nM RSL3, 16 hr): sustain mtDNA at the control level
- mtDNA copy number, compound alone (HT22 cells [3]; 5 μM): did not induce significant changes
